Measured values from PubChem BioAssay AID1963444 (Molecular Pharmacology Branch, DTP, NCI, 2024).

Test system: HSSY-II complex spheroid growth, percent test/control
Experiment: Anticancer human tumor HSSY-II cell line growth inhibition [Asc];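 further: spheroids exposed to drug for 7 days before reading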
Settings: for IC50: curve of first compound; for viability, T/C: stronger effect = lower value
Outline: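 Tumor cells were grown as multicellular spheroids with stromal HUVEC and mesenchymal stem cells and treated singly or in combination. Concentrations fell in half-log steps from the clinical Cmax, or from 10 microM where none was known.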

[1] = second compound 0.01 µM, first compound 0.0316 µM
[2] = second compound 0.01 µM, first compound 0.1 µM
[3] = second compound 0.0316 µM, first compound 0.0316 µM
[4] = second compound 0.0316 µM, first compound 0.1 µM
[5] = second compound 0.1 µM, first compound 0.0316 µM
[6] = second compound 0.1 µM, first compound 0.1 µM
[7] = second compound 0.316 µM, first compound 0.0316 µM
[8] = second compound 0.316 µM, first compound 0.1 µM
[9] = second compound 1 µM, first compound 0.0316 µM
[10] = second compound 1 µM, first compound 0.1 µM

Cc1nc(N2CCC3(CC2)COC(C)C3N)c(CO)nc1Sc1ccnc(N)c1Cl (configuration not stated) + CNC(C)C(=O)NC1CN(S(=O)(=O)c2cccc(S(=O)(=O)N3CCC4CCC(C(=O)NC(c5ccccc5)c5ccccc5)N4C(=O)C(NC(=O)C(C)NC)C3)c2)CCC2CCC(C(=O)NC(c3ccccc3)c3ccccc3)N2C1=O
IC50 (second compound 0.00316 µM): > 3000 nM | IC50 (second compound 0.01 µM): > 3000 nM | IC50 (second compound 0.0316 µM): > 3000 nM | IC50 (second compound 0.1 µM): > 3000 nM | IC50 (second compound 0.316 µM): > 3000 nM | IC50 (second compound 1 µM): > 3000 nM | viability, T/C (second compound 0.00316 µM, first compound 0.00949 µM): 104% | viability, T/C (second compound 0.00316 µM, first compound 0.03 µM): 102% | viability, T/C (second compound 0.00316 µM, first compound 0.0949 µM): 90.9% | viability, T/C (second compound 0.00316 µM, first compound 0.3 µM): 92.6% | viability, T/C (second compound 0.00316 µM, first compound 0.949 µM): 90.7% | viability, T/C (second compound 0.00316 µM, first compound 3 µM): 69.1% | viability, T/C (second compound 0.01 µM, first compound 0.00949 µM): 105% | viability, T/C (second compound 0.01 µM, first compound 0.03 µM): 97.2% | viability, T/C (second compound 0.01 µM, first compound 0.0949 µM): 90.8% | viability, T/C (second compound 0.01 µM, first compound 0.3 µM): 93.7% | viability, T/C (second compound 0.01 µM, first compound 0.949 µM): 88.1% | viability, T/C (second compound 0.01 µM, first compound 3 µM): 66.9% | viability, T/C (second compound 0.0316 µM, first compound 0.00949 µM): 101% | viability, T/C (second compound 0.0316 µM, first compound 0.03 µM): 91.2% | viability, T/C (second compound 0.0316 µM, first compound 0.0949 µM): 95.4% | viability, T/C (second compound 0.0316 µM, first compound 0.3 µM): 85.8% | viability, T/C (second compound 0.0316 µM, first compound 0.949 µM): 90.7% | viability, T/C (second compound 0.0316 µM, first compound 3 µM): 74.9% | viability, T/C (second compound 0.1 µM, first compound 0.00949 µM): 96.9% | viability, T/C (second compound 0.1 µM, first compound 0.03 µM): 96.4% | viability, T/C (second compound 0.1 µM, first compound 0.0949 µM): 97.5% | viability, T/C (second compound 0.1 µM, first compound 0.3 µM): 95.6% | viability, T/C (second compound 0.1 µM, first compound 0.949 µM): 84.3% | viability, T/C (second compound 0.1 µM, first compound 3 µM): 70.8% | viability, T/C (second compound 0.316 µM, first compound 0.00949 µM): 93.5% | viability, T/C (second compound 0.316 µM, first compound 0.03 µM): 94.2% | viability, T/C (second compound 0.316 µM, first compound 0.0949 µM): 90.2% | viability, T/C (second compound 0.316 µM, first compound 0.3 µM): 85.4% | viability, T/C (second compound 0.316 µM, first compound 0.949 µM): 78.7% | viability, T/C (second compound 0.316 µM, first compound 3 µM): 72.5% | viability, T/C (second compound 1 µM, first compound 0.00949 µM): 97.5% | viability, T/C (second compound 1 µM, first compound 0.03 µM): 92.8% | viability, T/C (second compound 1 µM, first compound 0.0949 µM): 92.7% | viability, T/C (second compound 1 µM, first compound 0.3 µM): 84.7% | viability, T/C (second compound 1 µM, first compound 0.949 µM): 87.6% | viability, T/C (second compound 1 µM, first compound 3 µM): 76%

Cn1ncnc1[C@H]1c2n[nH]c(=O)c3cc(F)cc(c23)N[C@@H]1c1ccc(F)cc1 + CNC(C)C(=O)NC1CN(S(=O)(=O)c2cccc(S(=O)(=O)N3CCC4CCC(C(=O)NC(c5ccccc5)c5ccccc5)N4C(=O)C(NC(=O)C(C)NC)C3)c2)CCC2CCC(C(=O)NC(c3ccccc3)c3ccccc3)N2C1=O
IC50 (second compound 0.01 µM): > 100 nM | IC50 (second compound 0.0316 µM): 22.5 nM | IC50 (second compound 0.1 µM): 24.3 nM | IC50 (second compound 0.316 µM): 15.3 nM | IC50 (second compound 1 µM): 82.5 nM | viability, T/C (second compound 0.01 µM, first compound 0.000316 µM): 86.3% | viability, T/C (second compound 0.01 µM, first compound 0.001 µM): 86% | viability, T/C (second compound 0.01 µM, first compound 0.00316 µM): 87.1% | viability, T/C (second compound 0.01 µM, first compound 0.01 µM): 59.3% | viability, T/C [1]: 43.4% | viability, T/C [2]: 59.6% | viability, T/C (second compound 0.0316 µM, first compound 0.000316 µM): 91.1% | viability, T/C (second compound 0.0316 µM, first compound 0.001 µM): 93.2% | viability, T/C (second compound 0.0316 µM, first compound 0.00316 µM): 80.8% | viability, T/C (second compound 0.0316 µM, first compound 0.01 µM): 60.7% | viability, T/C [3]: 36.8% | viability, T/C [4]: 53.4% | viability, T/C (second compound 0.1 µM, first compound 0.000316 µM): 82.9% | viability, T/C (second compound 0.1 µM, first compound 0.001 µM): 67.6% | viability, T/C (second compound 0.1 µM, first compound 0.00316 µM): 76.1% | viability, T/C (second compound 0.1 µM, first compound 0.01 µM): 58.3% | viability, T/C [5]: 39.6% | viability, T/C [6]: 55.4% | viability, T/C (second compound 0.316 µM, first compound 0.000316 µM): 93.8% | viability, T/C (second compound 0.316 µM, first compound 0.001 µM): 92.5% | viability, T/C (second compound 0.316 µM, first compound 0.00316 µM): 80.1% | viability, T/C (second compound 0.316 µM, first compound 0.01 µM): 53% | viability, T/C [7]: 37.7% | viability, T/C [8]: 54.4% | viability, T/C (second compound 1 µM, first compound 0.000316 µM): 89.6% | viability, T/C (second compound 1 µM, first compound 0.001 µM): 84.5% | viability, T/C (second compound 1 µM, first compound 0.00316 µM): 82% | viability, T/C (second compound 1 µM, first compound 0.01 µM): 72.2% | viability, T/C [9]: 56.4% | viability, T/C [10]: 48.9%

O=C(c1cc(Cc2n[nH]c(=O)c3ccccc23)ccc1F)N1CCN(C(=O)C2CC2)CC1 + CNC(C)C(=O)NC1CN(S(=O)(=O)c2cccc(S(=O)(=O)N3CCC4CCC(C(=O)NC(c5ccccc5)c5ccccc5)N4C(=O)C(NC(=O)C(C)NC)C3)c2)CCC2CCC(C(=O)NC(c3ccccc3)c3ccccc3)N2C1=O
IC50 (second compound 0.01 µM): 2650 nM | IC50 (second compound 0.0316 µM): 3380 nM | IC50 (second compound 0.1 µM): 3030 nM | IC50 (second compound 0.316 µM): 3220 nM | IC50 (second compound 1 µM): 2320 nM | viability, T/C [1]: 89% | viability, T/C [2]: 102% | viability, T/C (second compound 0.01 µM, first compound 0.316 µM): 91.5% | viability, T/C (second compound 0.01 µM, first compound 1 µM): 83.5% | viability, T/C (second compound 0.01 µM, first compound 3.16 µM): 43.9% | viability, T/C (second compound 0.01 µM, first compound 10 µM): 11.6% | viability, T/C [3]: 86.3% | viability, T/C [4]: 88.3% | viability, T/C (second compound 0.0316 µM, first compound 0.316 µM): 87.4% | viability, T/C (second compound 0.0316 µM, first compound 1 µM): 73.3% | viability, T/C (second compound 0.0316 µM, first compound 3.16 µM): 53.3% | viability, T/C (second compound 0.0316 µM, first compound 10 µM): 7.19% | viability, T/C [5]: 74.5% | viability, T/C [6]: 81.9% | viability, T/C (second compound 0.1 µM, first compound 0.316 µM): 64.6% | viability, T/C (second compound 0.1 µM, first compound 1 µM): 73.8% | viability, T/C (second compound 0.1 µM, first compound 3.16 µM): 49.1% | viability, T/C (second compound 0.1 µM, first compound 10 µM): 10.6% | viability, T/C [7]: 95.1% | viability, T/C [8]: 90.6% | viability, T/C (second compound 0.316 µM, first compound 0.316 µM): 86.9% | viability, T/C (second compound 0.316 µM, first compound 1 µM): 67.3% | viability, T/C (second compound 0.316 µM, first compound 3.16 µM): 54.7% | viability, T/C (second compound 0.316 µM, first compound 10 µM): 9.27% | viability, T/C [9]: 95.3% | viability, T/C [10]: 96.2% | viability, T/C (second compound 1 µM, first compound 0.316 µM): 83% | viability, T/C (second compound 1 µM, first compound 1 µM): 72% | viability, T/C (second compound 1 µM, first compound 3.16 µM): 42% | viability, T/C (second compound 1 µM, first compound 10 µM): 5.51%
